Measurements reported in patent US12427151B2, “Compositions and method of treating cancer” (The Regents of the University of California, priority 2017, dated 2025).

System: L5178Y tk+/- mouse lymphoma cells
Assay: Mutagenic activity at the thymidine kinase (tk) locus
Format: cell-based
Conditions: compared to vehicle
Protocol: Because some nucleobase analogs exert mutagenic activities due to their misrecognition of wrong bases, mutagenic activity of 6-HAP was determined by detecting mutagenic events at the thymidine kinase (tk) locus of L5178Y tk^+/− mouse lymphoma cells.

SMILES: COS(C)(=O)=O [methyl methanesulfonate, reference compound]
- mutagenic activity, mutation frequency at tk locus: did induce a high mutation frequency
